Reference: patent US20150278438A1, “GENETIC PREDICTORS OF RESPONSE TO TREATMENT WITH CRHR1 ANTAGONISTS” (MAX-PLANCK-GESELLSCHAFT ZUR FÖRDERUNG DER WISSENSCHAFTEN …, priority 2012, published 2015)

Legend:
[1] = system: Cor26 CRH mice; assay: Sleep EEG/EMG recording of REMS levels in Cor26 CRH mice treated with CRH-R1 antagonist; conditions: 50 mg/kg/d via drinking water; for REMS levels: CRH-overexpressing Cor26 CRH mice
[2] = system: CRH-COE^CNS mice; assay: Sleep EEG/EMG recording of REMS activity in CRH-COE^CNS mice treated with CRH-R1 antagonist; format: in vivo, mouse; conditions: 50 mg/kg/d via drinking water; for REMS activity: CRH-COE^CNS mice, versus baseline, significant beginning with treatment day two (DMP-696 P<0.05; SSR125543 P≦0.035)
Method: Experiments were conducted with two different mouse lines of excessive central CRH secretion and their respective control littermates (CL). Mice of the CRH-COE^CNS line are characterised by CRH-overexpression within the whole CNS, whereas mice of the Cor26 CRH line display a CRH-overexpression specific to CRH-ergic neurons of the CNS. Three different CRHR1 antagonists were tested. […] In all cases, animals were left to recover from EEG/EMG-electrode implantation for two weeks, after which two days of baseline recording were initiated. Treatment with CRH-R1 antagonist or respective vehicle control commenced thereafter for five consecutive days. Antagonists were applied through the drinking water at a daily dose of 50 mg/kg body weight. EEG and EMG recordings were manually scored as wake, non-REMS (NREMS), and REMS in four second epochs by an experienced evaluator.

[3] = system: mice overexpressing CRH in the forebrain; conditions: Kimura et al. 2010; cited from earlier work

Compound | REMS levels ([1]; 50 mg/kg/day) | REMS levels ([1]; listed as CP-316311, 50 mg/kg/day) | REMS levels, area under the curve (AUC) within the light period, baseline versus treatment day three ([1]; Cor26 CRH mice, P=0.006) | REMS activity, treatment day three ([2]; CRH-COE^CNS animals, treatment day three) | REMS activity ([2]; 50 mg/kg/day) | REMS activity ([2]; listed as DMP696, 50 mg/kg/day) | REM enhancement [3]
CCC(CC)Oc1cc(C)nc(Oc2c(C)cc(C)cc2C)c1C [CP-316,311] | apparently seemed weak | suppressed | significant decrease | – | – | – | –
COCC(COC)Nc1nc(C)nc2c(-c3ccc(Cl)cc3Cl)c(C)nn12 [DMP-696] | – | – | – | strongest suppression | significant decrease | suppressed | reverse the REM enhancement
